Assay results reported in patent US20250051316A1, “2-(ARYL-2-YL) […] […], PREPARATION METHOD THEREFOR AND APPLICATION THEREOF” (SHANGHAI HANSOH BIOMEDICAL CO., LTD., priority 2021, published 2025).

Experiments:
TAAR1 receptor = molecular target: T1, TAAR1 receptor (Homo sapiens, UniProt Q96RJ0); assay: Effect on cAMP content in cells which stably express TAAR1 receptor; type: cell-based
T1 construct: expressed in transfected cells
T1 sequence (Q96RJ0 1-339): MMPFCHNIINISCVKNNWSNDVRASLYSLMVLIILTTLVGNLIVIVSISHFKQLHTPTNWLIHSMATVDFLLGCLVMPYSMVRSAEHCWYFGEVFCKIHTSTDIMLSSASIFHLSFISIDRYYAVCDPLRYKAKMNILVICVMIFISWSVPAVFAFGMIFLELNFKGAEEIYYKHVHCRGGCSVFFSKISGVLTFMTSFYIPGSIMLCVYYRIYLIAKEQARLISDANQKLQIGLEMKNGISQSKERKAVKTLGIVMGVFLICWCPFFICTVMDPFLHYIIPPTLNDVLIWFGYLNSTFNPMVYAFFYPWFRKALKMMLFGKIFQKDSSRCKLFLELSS
Experimental: Test Example1. Determination of the effect of the present compound on cAMP content in cells which stably express TAAR1 receptor
Determination of the activation effect of compounds on TAAR1 receptors.
• 1) Preparation of experimental buffer: 1*HBSS+20 mM HEPES+0.1% BSA+500 μM IBMX. • 2) Complete medium: • Ham's F12K+10% Fetal Bovine Serum+1*Penicillin-Streptomycin+200 μg/mL Hygromycin B for CHO • DMEM+10% Fetal Bovine Serum+1*Penicillin-Streptomycin+200 μg/mL Hygromycin B for HEK293 • 3) TAAR1 cell line was cultured in complete medium at 37° C. and 5% CO2; After TrypLE digestion, the cells were resuspended in the experimental buffer and seeded into a 384 cell culture plate with a density of 8000 cells/15 ul/well. • 4) The compound was diluted with experimental buffer and added 5 μL to each well to culture at 37° C. for 30 minutes. • 5) cAMP-d2 and Anti cAMP Eu3+ were freeze thaw, and diluted 20 times with lysis buffer; 10 μL cAMP-d2 was added to the experimental well, and then 10 μL Anti cAMP Eu3+ was added into the experimental well; the reaction plate was centrifuged at 200 g for 30 seconds at room temperature, and stand at 25° C. for 1 hour; data was collected by Envision.
[formula] • 5) EC50 of compounds was calculated using GraphPad nonlinear fitting formula:
[formula] • X: Log value of the compound concentration; Y: Activation %

[1] = Pharmacokinetic assay of Balb/c mice, plasma and brain, oral; type: in vivo; settings: male, mouse, p.o. 5 mg/kg
Experimental: Test Example 3. Pharmacokinetic Assay of Balb/c Mice
Balb/c Mice were used as test animals. The pharmacokinetic behavior of the compounds of the present invention was studied in the plasma and brain of mice administered orally at the dose of 5 mg/kg.
Balb/c Mice, male, Shanghai Jiesijie Experimental Animal Co., Ltd., animal production license number (SCXK (Shanghai) 2013-0006 N0.311620400001794).
After fasting overnight, 24 male Balb/c mice were administered p.o. at a dose of 5 mg/kg and an administration volume of 10 mL/kg, respectively.
Drug formulation for oral administration: 0.5% CMC-Na (1% Tween 80).
After CO2 euthanasia of experimental animals, heart blood and brain tissue were collected at 0.25 h, 0.5 h, 1 h, 2 h, 4 h, 6 h, 8 h, and 24 h after administration. The blood was placed in EDTA-2K tubes and centrifuged at 4° C. and 6000 rpm for 6 minutes to separate plasma. The brain tissue was washed with pre-cooled PBS, dried, weighed, and stored at −80° C. The animals were feed 4 hours after administration.
1) 160 μL of acetonitrile was added to 40 μL of the plasma sample for precipitation, and then the mixture was centrifuged at 3500×g for 5-20 min.
2) 100 μL of the supernatant was taken to analyze the concentration of the test compound by LC/MS/MS.
• Liquid chromatography condition: Shimadzu LC-20AD pump • Mass spectrometry condition: AB Sciex API 4000 mass spectrometer • Chromatographic column: phenomenex Gemiu 5 μm C18 50×4.6 mm • Mobile phase: Eluent A was 0.10% formic acid in water, and Eluent B was acetonitrile • Flow rate: […] • Elution time: 0-4.0 minutes, the eluent is as follows:
The main pharmacokinetic parameters were calculated using WinNonlin8.1, and the results of the pharmacokinetic experiments in mouse are shown in the table below.

[2] = system: C57BL/6 mice, high spontaneous activity induced by phencyclidine (PCP); assay: High spontaneous activity model of mice induced by phencyclidine (PCP); type: in vivo; settings: 60 minutes after modeling
Source text: Test Example 2. Pharmacodynamic Evaluation of the Present Compounds in Mice Model of High Spontaneous Activity Induced by Phencyclidine (PCP)
The purpose of the experiment is to evaluate the efficacy of compounds in a high spontaneous activity model of C57BL/6 mice induced by phencyclidine (PCP) using the spontaneous activity method.
C57BL/6 mice, provided by Shanghai Lingchang Biotechnology Co., Ltd., male, 6-8 weeks, 20-24 g, 36 mice.
The day before the experimental test, the animals were placed in the laboratory and acclimated for 8 hours.
On the day of adaptation, the animals were randomly grouped according to their weight.
The animals were weithed and treated with solvent control (20% HP-3-CD), compounds of the present invention (oral administration) respectively. 30 minutes later, modeling (intraperitoneal administration) was performed, and the animals were given physiological saline or phencyclidine, with dosage volume of 10 mL/kg.
After the administration, the animals were placed in observation box and the spontaneous activity was detected for 30 minutes. The moving distance (meters) of the animals in the observation box was counted every 5 minutes.
After 30 minutes, the animals were taken out for modeling and then placed in the observation box to test their spontaneous activity for 60 minutes. The moving distance (meters) of the animals in the observation box was counted every 5 minutes.
Excel software was used to collect data. A Two-Way ANOVA or One-Way ANOVA was conducted used Prism (Graph pad software, Inc.) software. p<0.05 was considered significant difference.

Row | Structure (SMILES) | EC50 (TAAR1 receptor) [nM] | AUC(0-t) ([1]; Brain) [ng·h/mL] | Cmax ([1]; Brain) [ng/mL] | Tmax ([1]; Brain) [min] | half-life ([1]; Brain) [min] | AUC(0-t) ([1]; Plasma) [ng·h/mL] | Cmax ([1]; Plasma) [ng/mL] | Tmax ([1]; Plasma) [min] | half-life ([1]; Plasma) [min] | Total distance (m, Mean ± SEM) 60 minutes ([2]; compound 6 mg/kg oral + PCP 5 mg/kg i.p.) [m] | Total distance (m, Mean ± SEM) 60 minutes ([2]; compound 3 mg/kg oral + PCP 5 mg/kg i.p.) [m]
1 | Cc1cccc([C@@H]2CNCCO2)c1 [Example 47-2] | 11.5 | – | – | – | – | – | – | – | – | – | –
2 | Clc1cccc(C2CNCCO2)c1 (single isomer, unassigned) [Example 46-1, 2-(3-Chlorophenyl)morpholine] | 17.7 | – | – | – | – | – | – | – | – | – | –
3 | [2H]C1([2H])COC(c2cc(C)ccn2)CN1 (single isomer, unassigned) [Example 16-1, 2-(4-Methylpyridin-2-yl)morpholin-5,5-d2] | 21.3 | 5630 | 1740 | 15 | 174 | 2270 | 890 | 15 | 114 | – | –
4 | [2H]c1ccnc([C@@H]2CNCCO2)c1 (single isomer, unassigned) [Example 7-2, 2-(pyridin-2-yl-4-d)morpholine] | 5.9 | 4410 | 2500 | 30 | 54 | 2840 | 1560 | 30 | 48 | – | –
5 | Clc1ccc(C2CNCCO2)nc1 (single isomer, unassigned) [Example 25-2] | 207 | – | – | – | – | – | – | – | – | – | –
6 | [2H]c1ccc([C@H]2CNCCO2)nc1 (single isomer, unassigned) [Example 6-2, 2-(pyridin-2-yl-5-d)morpholine] | 3.4 | 6480 | 3030 | 15 | 48 | 4300 | 2050 | 15 | 48 | – | –
7 | Fc1cccc([C@@H]2CNCCO2)c1 [Example 48-1] | 2.1 | – | – | – | – | – | – | – | – | – | –
8 | c1ccc(C2CNCCO2)nc1 (stereo not shown) [Compound A, 2-(Pyridin-2-yl)morpholine] | 7.1 | – | – | – | – | – | – | – | – | 113.09 ± 12.69 | –
9 | Cc1nc([C@@H]2CNCCO2)ccc1F (single isomer, unassigned) [Example 19-2, 2-(5-fluoro-6-methyl-2-pyridyl)morpholine] | 13.6 | 8640 | 2510 | 120 | 66 | 2760 | 705 | 120 | 222 | – | –
10 | [2H]c1ccc(C2CNCCO2)cc1 (single isomer, unassigned) [Example 28-2, 2-(phenyl-4-d)morpholine] | 3 | 3980 | 2110 | 15 | 78 | 2820 | 1340 | 15 | 84 | – | 113.09 ± 12.69
